Reference: publication PMC9516332 (Frontiers in Oncology, 2022)
Like-named read-outs stand apart in the source and are kept apart here.

Legend:
Assay in all cases: Kinase panel profiling at 1 µmol/L (MSA or IMAP), percentage inhibition
Type in all cases: biochemical
[1] = biological target: panel of 255 wild-type kinases (Homo sapiens, UniProt O60674); conditions: read-out: %-inhibition at 1 µmol/L, JAK2
[2] = biological target: panel of 255 wild-type kinases (Homo sapiens, UniProt O96013); conditions: read-out: %-inhibition, PAK4
[3] = biological target: T1, panel of 255 wild-type kinases (Homo sapiens, UniProt P54762); conditions: read-out: %-inhibition at 1 µmol/L, EPHB1
T1 sequence (P54762 18-984): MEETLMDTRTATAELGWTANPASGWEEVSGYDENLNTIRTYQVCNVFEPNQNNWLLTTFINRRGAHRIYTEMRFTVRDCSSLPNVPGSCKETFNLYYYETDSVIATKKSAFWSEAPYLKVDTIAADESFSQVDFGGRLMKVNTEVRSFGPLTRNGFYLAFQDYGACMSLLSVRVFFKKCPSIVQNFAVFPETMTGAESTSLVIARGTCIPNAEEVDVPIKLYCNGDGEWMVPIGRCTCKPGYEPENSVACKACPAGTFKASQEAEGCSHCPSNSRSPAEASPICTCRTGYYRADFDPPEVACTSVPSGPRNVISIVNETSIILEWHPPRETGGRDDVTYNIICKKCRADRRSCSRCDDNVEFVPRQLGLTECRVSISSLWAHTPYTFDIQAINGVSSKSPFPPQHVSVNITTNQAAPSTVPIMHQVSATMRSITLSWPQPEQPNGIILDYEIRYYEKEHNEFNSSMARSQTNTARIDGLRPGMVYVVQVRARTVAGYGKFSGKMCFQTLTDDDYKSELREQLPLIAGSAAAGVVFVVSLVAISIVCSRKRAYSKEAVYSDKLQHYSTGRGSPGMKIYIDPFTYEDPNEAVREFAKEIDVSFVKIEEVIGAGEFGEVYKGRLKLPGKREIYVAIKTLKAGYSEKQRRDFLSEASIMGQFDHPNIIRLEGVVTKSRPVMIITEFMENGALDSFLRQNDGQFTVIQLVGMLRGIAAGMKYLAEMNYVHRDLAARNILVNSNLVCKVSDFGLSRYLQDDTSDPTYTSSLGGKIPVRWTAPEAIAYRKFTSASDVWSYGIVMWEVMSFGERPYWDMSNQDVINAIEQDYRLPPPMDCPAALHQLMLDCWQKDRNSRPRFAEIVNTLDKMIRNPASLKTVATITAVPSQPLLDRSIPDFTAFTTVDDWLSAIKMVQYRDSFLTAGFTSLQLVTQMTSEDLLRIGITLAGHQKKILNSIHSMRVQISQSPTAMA

[4] = biological target: T2, panel of 255 wild-type kinases (Homo sapiens, UniProt Q08881); conditions: read-out: %-inhibition at 1 µmol/L, ITK
T2 sequence (Q08881 1-620): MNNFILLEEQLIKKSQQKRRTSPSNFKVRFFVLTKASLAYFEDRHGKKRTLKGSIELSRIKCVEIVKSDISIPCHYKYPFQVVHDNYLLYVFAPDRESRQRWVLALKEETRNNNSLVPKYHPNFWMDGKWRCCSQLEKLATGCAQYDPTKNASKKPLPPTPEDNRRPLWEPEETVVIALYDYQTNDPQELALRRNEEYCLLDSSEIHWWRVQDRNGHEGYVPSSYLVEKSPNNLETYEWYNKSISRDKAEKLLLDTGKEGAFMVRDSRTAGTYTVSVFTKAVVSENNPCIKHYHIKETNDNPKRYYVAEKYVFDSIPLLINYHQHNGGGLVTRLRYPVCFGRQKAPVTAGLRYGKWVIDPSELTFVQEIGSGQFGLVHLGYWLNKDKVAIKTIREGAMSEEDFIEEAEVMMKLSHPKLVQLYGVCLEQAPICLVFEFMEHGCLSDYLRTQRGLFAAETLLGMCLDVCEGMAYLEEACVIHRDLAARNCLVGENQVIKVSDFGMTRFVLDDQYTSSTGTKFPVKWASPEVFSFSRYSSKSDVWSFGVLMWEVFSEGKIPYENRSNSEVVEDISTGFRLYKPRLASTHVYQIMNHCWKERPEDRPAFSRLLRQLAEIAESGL

[5] = biological target: T3, panel of 255 wild-type kinases (Homo sapiens, UniProt Q8TF76); conditions: read-out: %-inhibition at 1 µmol/L, Haspin
T3 sequence (Q8TF76 1-798): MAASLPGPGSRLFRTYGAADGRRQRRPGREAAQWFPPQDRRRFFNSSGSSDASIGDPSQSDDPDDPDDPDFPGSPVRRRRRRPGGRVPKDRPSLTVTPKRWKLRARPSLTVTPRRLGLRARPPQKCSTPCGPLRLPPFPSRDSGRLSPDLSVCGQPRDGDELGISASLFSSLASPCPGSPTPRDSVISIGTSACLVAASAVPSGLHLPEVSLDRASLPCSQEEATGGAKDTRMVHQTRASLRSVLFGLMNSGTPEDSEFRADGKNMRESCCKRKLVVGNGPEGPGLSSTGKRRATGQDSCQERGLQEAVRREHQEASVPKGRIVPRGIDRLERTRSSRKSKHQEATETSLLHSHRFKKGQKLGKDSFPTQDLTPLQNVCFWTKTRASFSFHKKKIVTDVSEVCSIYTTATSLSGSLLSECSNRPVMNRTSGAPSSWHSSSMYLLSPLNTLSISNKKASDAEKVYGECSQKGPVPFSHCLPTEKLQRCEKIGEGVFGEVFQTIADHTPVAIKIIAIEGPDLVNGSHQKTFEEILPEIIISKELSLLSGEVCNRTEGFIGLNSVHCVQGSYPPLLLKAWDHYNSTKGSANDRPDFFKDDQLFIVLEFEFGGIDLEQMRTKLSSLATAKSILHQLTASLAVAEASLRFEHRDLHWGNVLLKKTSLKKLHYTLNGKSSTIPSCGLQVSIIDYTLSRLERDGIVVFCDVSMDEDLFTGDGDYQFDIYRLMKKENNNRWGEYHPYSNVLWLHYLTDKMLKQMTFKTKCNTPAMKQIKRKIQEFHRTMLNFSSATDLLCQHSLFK

[6] = biological target: panel of 255 wild-type kinases (Homo sapiens, UniProt Q9BUB5); conditions: read-out: %-inhibition, MNK1
[7] = biological target: panel of 255 wild-type kinases (Homo sapiens, UniProt Q9H4A3); conditions: read-out: %-inhibition at 1 µmol/L, WNK1
[8] = kinase JAK2, 1 µmol/L single concentration
[9] = PAK4, 1 µmol/L single concentration
[10] = kinase EPHB1, 1 µmol/L single concentration
[11] = kinase ITK, 1 µmol/L single concentration
[12] = kinase Haspin, 1 µmol/L single concentration
[13] = MNK1, 1 µmol/L single concentration
[14] = kinase WNK1, 1 µmol/L single concentration

Row | inhibition at 1 µM [2, 9] | SMILES | inhibition at 1 µM [1, 8] | inhibition at 1 µM [3, 10] | inhibition at 1 µM [4, 11] | inhibition at 1 µM [5, 12] | inhibition at 1 µM [6, 13] | inhibition at 1 µM [7, 14] | inhibition at 1 µM [1] | inhibition at 1 µM [2] | inhibition at 1 µM [3] | inhibition at 1 µM [4] | inhibition at 1 µM [5] | inhibition at 1 µM [6] | inhibition at 1 µM [7]
1 | 0.277% | C[C@H](Nc1ncnc2nc[nH]c12)c1cc2cccc(Cl)c2c(=O)n1-c1ccccc1 [duvelisib] | 3.29% | 10% | 9% | 2% | 0.446% | -3% |  |  |  |  |  |  | 
2 |  | CNC(=O)c1ccc(-c2cnc3ncc(Cc4ccc5ncccc5c4)n3n2)cc1F [capmatinib] |  |  |  |  |  |  | 1.58% | 1% | -1.63% | 5% | 37% | -1% | -5%
3 | -4.61% | O=C(Nc1cnn2ccc(N3CCC[C@@H]3c3cc(F)ccc3F)nc12)N1CC[C@H](O)C1 [larotrectinib] | 46% | -0.531% | 13% | -4.46% | -5.37% | -4.49% |  |  |  |  |  |  | 
4 |  | CN1CCN(c2ccc(C(=O)Nc3n[nH]c4ccc(Cc5cc(F)cc(F)c5)cc34)c(NC3CCOCC3)c2)CC1 [entrectinib] | 100% | 62% | 99% | -2.24% | -1% | -2.18% |  |  |  |  |  |  | 
5 | -2.71% | Cn1cnc2c(F)c(Nc3ccc(Br)cc3F)c(C(=O)NOCCO)cc21 [binimetinib] | -0.409% | 2% | 1.61% | -15% | 1.8% | -3.5% |  |  |  |  |  |  | 
6 | 8% | COc1ccc(CN2C3CC2CN(c2ccc(-c4cc(OCC(C)(C)O)cn5ncc(C#N)c45)cn2)C3)cn1 [selpercatinib] | 27% | 98% | 79% | -4.63% | 42% | -10% |  |  |  |  |  |  | 
7 | 0.0966% | Cc1nc(NC(=O)N2CCC[C@H]2C(N)=O)sc1-c1ccnc(C(C)(C)C(F)(F)F)c1 [alpelisib] | 1.85% | 8% | 9% | -4% | 2.72% | -4% |  |  |  |  |  |  | 
8 | 5% | Cc1cc(Nc2ncnc3ccc(NC4=NC(C)(C)CO4)cc23)ccc1Oc1ccn2ncnc2c1 [tucatinib] | 4.51% | 0.25% | 1.31% | 0.893% | -1.41% | -4% |  |  |  |  |  |  | 
9 | 4.6% | Cn1cnc2c(F)c(Nc3ccc(Br)cc3Cl)c(C(=O)NOCCO)cc21 [selumetinib] | -0.0152% | -0.927% | 4.28% | 3.64% | -6.56% | -2.62% |  |  |  |  |  |  | 
10 | -3.66% | COc1cc2ncnc(Nc3ccc(F)c(Cl)c3)c2cc1NC(=O)/C=C/CN1CCCCC1 [dacomitinib] | 0.856% | 45% | 24% | 13% | 91% | -4% |  |  |  |  |  |  | 

Row | SMILES | inhibition at 1 µM [2, 9] | inhibition at 1 µM [1, 8] | inhibition at 1 µM [3, 10] | inhibition at 1 µM [4, 11] | inhibition at 1 µM [5, 12] | inhibition at 1 µM [6, 13] | inhibition at 1 µM [7, 14] | inhibition at 1 µM [1] | inhibition at 1 µM [2] | inhibition at 1 µM [3] | inhibition at 1 µM [4] | inhibition at 1 µM [5] | inhibition at 1 µM [6] | inhibition at 1 µM [7]
11 | COC(=O)N[C@@H](C)CNc1nccc(-c2cn(C(C)C)nc2-c2cc(Cl)cc(NS(C)(=O)=O)c2F)n1 [encorafenib] | -2.13% | 2.62% | 3% | 3.49% | -5% | 4.33% | 0.0799% |  |  |  |  |  |  | 
12 | CCN1CCN(c2ccc(Nc3cc(N(C)C(=O)Nc4c(Cl)c(OC)cc(OC)c4Cl)ncn3)cc2)CC1 [infigratinib] | 6% | 2.11% | 2.8% | 6% | -1.4% | -1.75% | -4.6% |  |  |  |  |  |  | 
13 | FC(F)(F)c1ccc(CNc2ccc(Cc3c[nH]c4ncc(Cl)cc34)cn2)cn1 [pexidartinib] | 11% | 35% | 11% | 9% | 6.52% | 61% | -1.24% |  |  |  |  |  |  | 
14 | CCc1nc(C(N)=O)c(Nc2ccc(N3CCC(N4CCN(C)CC4)CC3)c(OC)c2)nc1NC1CCOCC1 [gilteritinib] | 74% | 95% | 87% | 92% | 35% | 70% | -3% |  |  |  |  |  |  | 
15 | CCn1c(=O)c(-c2cc(NC(=O)Nc3ccccc3)c(F)cc2Br)cc2cnc(NC)cc21 [ripretinib] | 0.34% | 63% | 92% | 1.24% | 1.87% | 8.51% | -5% |  |  |  |  |  |  | 
16 | C[C@H]1Oc2cc(cnc2N)-c2c(nn(C)c2C#N)CN(C)C(=O)c2ccc(F)cc21 [lorlatinib] | 1.84% | 69% | 68% | 14% | 0.865% | 6% | 0.826% |  |  |  |  |  |  | 
17 | CCN1C(=O)N(c2c(F)c(OC)cc(OC)c2F)Cc2cnc3[nH]c(CN4CCOCC4)cc3c21 [pemigatinib] | -1.88% | -2.85% | -3% | 2% | -3.7% | -4.63% | -3.59% |  |  |  |  |  |  | 
